Patent US10550124B2, “Atropisomerism for increased kinase inhibitor selectivity” (SAN DIEGO STATE UNIVERSITY RESEARCH FOUNDATION, priority 2015, dated 2020)
Blank lines part the entries; values can stand above or below the molecule they belong to.

Tests used:
[1] = Experimental measurement of the barriers to rotation (chiral HPLC); type: physicochemical; details: for Barrier to Rotation: calculated from kobs, Gibbs free energy equation; for Barrier to Rotation kobs: observed rate constant of racemization, in ethanol, heated at constant temperature, in s^-1 (unit assumed)
Protocol: Enantiomerically enriched atropisomeric pyrrolopyrimidine analogues were isolated via chiral HPLC (Daicel Chiralpak IA PN:80335, 3 mL/min, 80:20 or 50:50 hexanes:[…], 25° C.) and evaporated in vacuo. The enantiomerically enriched analogues were then dissolved in ethanol and placed in a sealed 2-dram vial and heated under constant temperature on an aluminum block. At each time point, an aliquot of the mixture was removed and quenched in an HPLC vial containing ice cold 80:20 hexanes:ethanol. Each sample was then injected into the chiral HPLC system (Daicel Chiralpak IA PN:80325, 1 mL/min, 80:20 or 50:50 hexanes:ethanol, 25° C.) and enantiomeric excess (ee) measured. The timepoint and enantiomeric excess (ee) data was then plotted in order to determine an observed rate constant, kobs, at the corresponding temperature. The barrier to rotation was then calculated using the relationship of kracemization=2*kenantiomerization and then substituted into the Gibbs Free Energy Equation:
[formula] where h=Planck Constant, kb=Boltzmann Constant, T=Temp. (K), R=Gas Constant.

[2] = biological target: Src kinase (Homo sapiens, UniProt P12931); experiment: Z′-LYTE kinase inhibition assay, Src; type: biochemical; details: for IC50: Src, error is standard deviation
Chain of Src kinase (P12931 whole entry): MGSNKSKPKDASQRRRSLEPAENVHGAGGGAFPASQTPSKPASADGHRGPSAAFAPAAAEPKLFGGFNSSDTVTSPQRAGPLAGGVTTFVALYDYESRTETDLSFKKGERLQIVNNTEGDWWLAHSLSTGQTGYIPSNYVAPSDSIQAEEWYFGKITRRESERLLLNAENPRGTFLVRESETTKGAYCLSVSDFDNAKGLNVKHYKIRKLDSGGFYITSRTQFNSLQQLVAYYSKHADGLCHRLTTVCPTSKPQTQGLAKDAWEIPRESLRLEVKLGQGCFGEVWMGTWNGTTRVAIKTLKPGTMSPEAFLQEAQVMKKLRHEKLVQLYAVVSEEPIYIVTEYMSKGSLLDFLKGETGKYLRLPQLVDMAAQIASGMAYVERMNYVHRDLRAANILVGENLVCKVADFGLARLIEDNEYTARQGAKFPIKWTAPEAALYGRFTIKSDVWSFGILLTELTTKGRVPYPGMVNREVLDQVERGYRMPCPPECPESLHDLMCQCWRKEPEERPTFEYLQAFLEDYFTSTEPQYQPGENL
Source text: Based on the observed stereochemical stabilities, we chose 1f, 2e, and 2f for further study and obtained inhibition data against Src kinase from Life Technologies' Z′-LYTE™ kinase assay (Scheme 3).
(§1) All samples were sent out to Life Technologies to obtain kinase inhibition data. A brief description of the assays and analyses are included below.
(§2) Assay Theory (SelectScreen® Kinase Profiling Services (Life Technologies, Madison, Wis. USA). The Z′-LYTE® biochemical assay employs a fluorescence-based, coupled-enzyme format and is based on the differential sensitivity of phosphorylated and non-phosphorylated peptides to proteolytic cleavage. The peptide substrate is labeled with two fluorophores one at each end—that make up a FRET pair.
(§3) In the primary reaction, the kinase transfers the gamma-phosphate of ATP to a single tyrosine, serine or threonine residue in a synthetic FRET-peptide. In the secondary reaction, a site-specific protease recognizes and cleaves non-phosphorylated FRET-peptides.
(§4) Phosphorylation of FRET-peptides suppresses cleavage by the Development Reagent. Cleavage disrupts FRET between the donor (i.e., coumarin) and acceptor (i.e., fluorescein) fluorophores on the FRET-peptide, whereas uncleaved, phosphorylated FRET-peptides maintain FRET. A ratiometric method, which calculates the ratio (the Emission Ratio) of donor emission to acceptor emission after excitation of the donor fluorophore at 400 nm, is used to quantitate reaction progress, as shown in the equation below: […]
(§5) A significant benefit of this ratiometric method for quantitating reaction progress is the elimination of well-to-well variations in FRET-peptide concentration and signal intensities. As a result, the assay yields very high Z′-factor values (>0.7) at a low percent phosphorylation. Both cleaved and uncleaved FRET-peptides contribute to the fluorescence signals and therefore to the Emission Ratio. The extent of phosphorylation of the FRET-peptide can be calculated from the Emission Ratio. The Emission Ratio will remain low if the FRET-peptide is phosphorylated (i.e., no kinase inhibition) and will he high if the FRET-peptide is non-phosphorylated (i.e., kinase inhibition).

[3] = biological target: Kit (Homo sapiens, UniProt P10721); experiment: Z′-LYTE kinase inhibition assay, Kit; type: biochemical; details: average of 2 runs
Source text: as §1, §2, §3, §4, §5

[4] = biological target: Alk (Homo sapiens, UniProt Q9UM73); experiment: Z′-LYTE kinase inhibition assay, Alk; type: biochemical; details: average of 2 runs
Source text: as §1, §2, §3, §4, §5

[5] = biological target: Yes (Homo sapiens, UniProt P07947); experiment: Z′-LYTE kinase inhibition assay, Yes; type: biochemical
Chain of Yes (P07947 whole entry): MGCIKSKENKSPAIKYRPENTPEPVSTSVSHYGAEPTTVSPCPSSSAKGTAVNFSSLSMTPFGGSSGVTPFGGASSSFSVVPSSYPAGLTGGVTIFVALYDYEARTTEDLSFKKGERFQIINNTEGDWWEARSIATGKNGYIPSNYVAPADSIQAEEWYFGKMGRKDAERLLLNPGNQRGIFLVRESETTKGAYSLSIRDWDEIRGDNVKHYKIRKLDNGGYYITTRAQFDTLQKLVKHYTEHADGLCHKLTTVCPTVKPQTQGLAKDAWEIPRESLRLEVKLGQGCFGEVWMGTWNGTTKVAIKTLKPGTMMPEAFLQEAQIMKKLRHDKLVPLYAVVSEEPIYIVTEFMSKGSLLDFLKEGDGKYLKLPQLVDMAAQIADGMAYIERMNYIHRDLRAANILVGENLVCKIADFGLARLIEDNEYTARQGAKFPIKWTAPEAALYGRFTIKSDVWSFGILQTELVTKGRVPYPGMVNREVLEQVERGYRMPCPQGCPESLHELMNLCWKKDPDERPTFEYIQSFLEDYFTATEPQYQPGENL
Source text: as §1, §2, §3, §4, §5

[6] = biological target: Her-2 (Homo sapiens, UniProt P04626); experiment: Z′-LYTE kinase inhibition assay, Her-2; type: biochemical; details: average of 2 runs
Source text: as §1, §2, §3, §4, §5

[7] = biological target: Ret (Homo sapiens, UniProt P07949); experiment: Z′-LYTE kinase inhibition assay, Ret; type: biochemical; details: for % inhibition: average of 2 runs
Chain of Ret (P07949 29-1114): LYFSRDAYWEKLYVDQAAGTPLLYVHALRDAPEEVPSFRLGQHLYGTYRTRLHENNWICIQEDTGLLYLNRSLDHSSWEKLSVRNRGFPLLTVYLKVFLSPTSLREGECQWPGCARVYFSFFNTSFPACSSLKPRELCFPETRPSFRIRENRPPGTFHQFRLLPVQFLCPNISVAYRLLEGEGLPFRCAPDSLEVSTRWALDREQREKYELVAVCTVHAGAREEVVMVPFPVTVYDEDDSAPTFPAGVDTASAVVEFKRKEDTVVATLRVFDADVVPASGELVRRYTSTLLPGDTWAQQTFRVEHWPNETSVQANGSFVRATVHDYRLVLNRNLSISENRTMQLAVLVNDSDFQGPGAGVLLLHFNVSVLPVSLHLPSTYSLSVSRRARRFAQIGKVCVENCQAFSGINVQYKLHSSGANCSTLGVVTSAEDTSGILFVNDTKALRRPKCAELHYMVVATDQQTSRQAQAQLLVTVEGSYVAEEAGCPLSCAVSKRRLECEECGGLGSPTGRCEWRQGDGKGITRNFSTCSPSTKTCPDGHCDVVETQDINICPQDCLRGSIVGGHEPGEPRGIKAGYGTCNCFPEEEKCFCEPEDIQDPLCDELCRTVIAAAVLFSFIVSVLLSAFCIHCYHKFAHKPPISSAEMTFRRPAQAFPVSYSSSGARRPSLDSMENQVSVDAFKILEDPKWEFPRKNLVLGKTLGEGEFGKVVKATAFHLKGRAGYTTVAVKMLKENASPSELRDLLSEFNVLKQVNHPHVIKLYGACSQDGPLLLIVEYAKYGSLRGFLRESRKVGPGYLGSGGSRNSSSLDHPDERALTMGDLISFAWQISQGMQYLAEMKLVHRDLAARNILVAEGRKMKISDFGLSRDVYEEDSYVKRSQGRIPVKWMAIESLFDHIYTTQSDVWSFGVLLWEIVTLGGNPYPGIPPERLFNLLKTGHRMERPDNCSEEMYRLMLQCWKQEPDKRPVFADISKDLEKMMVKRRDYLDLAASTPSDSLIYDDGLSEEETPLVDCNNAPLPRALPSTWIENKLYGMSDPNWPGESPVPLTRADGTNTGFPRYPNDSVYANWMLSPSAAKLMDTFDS
Source text: as §1, §2, §3, §4, §5

[8] = system: panel of 18 tyrosine kinases; experiment: Kinase inhibitor profiling across a panel of tyrosine kinases (selectivity); type: biochemical; details: for S(40%): number of kinases inhibited greater than 40% divided by number of kinases tested (including Src)
Protocol: In order to probe the effect of atropisomeric conformation on kinase selectivity we subjected 1f, 2e, and 2f to kinase inhibitor profiling across a panel of tyrosine kinases at 1000 nM and 5000 nM (data for 2e shown in Scheme 4 below).
To analyze each analog's selectivity across the panel we turned to selectivity scores (Davis et al., Nat. Biotechnol. 2011, 29, 1046-51), simply the number of kinases inhibited above a certain threshold divided by the number of kinases evaluated. […] For example at 1000 nM 2e-(R) yielded an S(40%) of 0.11 while 2e-(S) gave an S(40%) of 0.16. […] Differences in selectivity between 2e-(R) and 2e-(S) at 5000 nM (4.5 times the IC50 of 2e-(S) toward Src) and for 5 at 1000 nM (6.25 times the IC50 of 5 toward Src) can be viewed graphically across tyrosine kinases (FIG. 3). Importantly, similar trends were also observed across each of the atropisomeric series tested.
as §1, §2, §3, §4, §5

[9] = biological target: Blk (Homo sapiens, UniProt P51451); experiment: Z′-LYTE kinase inhibition assay, Blk; type: biochemical; details: average of 2 runs
Chain of Blk (P51451 whole entry): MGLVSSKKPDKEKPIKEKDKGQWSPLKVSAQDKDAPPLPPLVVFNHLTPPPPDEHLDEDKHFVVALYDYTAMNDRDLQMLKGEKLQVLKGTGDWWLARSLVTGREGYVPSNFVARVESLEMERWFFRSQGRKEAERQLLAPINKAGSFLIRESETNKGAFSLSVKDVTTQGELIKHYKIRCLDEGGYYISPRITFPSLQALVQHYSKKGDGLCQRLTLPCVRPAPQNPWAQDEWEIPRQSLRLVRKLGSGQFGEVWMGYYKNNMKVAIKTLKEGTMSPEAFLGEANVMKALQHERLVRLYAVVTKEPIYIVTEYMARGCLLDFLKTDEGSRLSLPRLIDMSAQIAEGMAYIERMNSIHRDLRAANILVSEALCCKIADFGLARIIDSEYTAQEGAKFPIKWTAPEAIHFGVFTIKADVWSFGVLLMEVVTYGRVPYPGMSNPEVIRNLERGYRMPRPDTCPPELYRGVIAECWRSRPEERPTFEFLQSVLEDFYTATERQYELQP
Source text: as §1, §2, §3, §4, §5

[10] = biological target: pdgfr-b (Homo sapiens, UniProt P09619); experiment: Z′-LYTE kinase inhibition assay, pdgfr-b; type: biochemical; details: average of 2 runs
Source text: as §1, §2, §3, §4, §5

[11] = biological target: Lyn (Homo sapiens, UniProt P07948); experiment: Z′-LYTE kinase inhibition assay, Lyn; type: biochemical; details: average of 2 runs
Source text: as §1, §2, §3, §4, §5

[12] = biological target: pdgfr-a (Homo sapiens, UniProt P16234); experiment: Z′-LYTE kinase inhibition assay, pdgfr-a; type: biochemical; details: average of 2 runs
Source text: as §1, §2, §3, §4, §5

[13] = biological target: Fyn (Homo sapiens, UniProt P06241); experiment: Z′-LYTE kinase inhibition assay, Fyn; type: biochemical; details: average of 2 runs
Source text: as §1, §2, §3, §4, §5

[14] = biological target: Fgr (Homo sapiens, UniProt P09769); experiment: Z′-LYTE kinase inhibition assay, Fgr; type: biochemical; details: average of 2 runs
Source text: as §1, §2, §3, §4, §5

[15] = biological target: EGFR (Homo sapiens, UniProt P00533); experiment: Z′-LYTE kinase inhibition assay, EGFR; type: biochemical; details: for % inhibition: average of 2 runs
Chain of EGFR (P00533 25-1210): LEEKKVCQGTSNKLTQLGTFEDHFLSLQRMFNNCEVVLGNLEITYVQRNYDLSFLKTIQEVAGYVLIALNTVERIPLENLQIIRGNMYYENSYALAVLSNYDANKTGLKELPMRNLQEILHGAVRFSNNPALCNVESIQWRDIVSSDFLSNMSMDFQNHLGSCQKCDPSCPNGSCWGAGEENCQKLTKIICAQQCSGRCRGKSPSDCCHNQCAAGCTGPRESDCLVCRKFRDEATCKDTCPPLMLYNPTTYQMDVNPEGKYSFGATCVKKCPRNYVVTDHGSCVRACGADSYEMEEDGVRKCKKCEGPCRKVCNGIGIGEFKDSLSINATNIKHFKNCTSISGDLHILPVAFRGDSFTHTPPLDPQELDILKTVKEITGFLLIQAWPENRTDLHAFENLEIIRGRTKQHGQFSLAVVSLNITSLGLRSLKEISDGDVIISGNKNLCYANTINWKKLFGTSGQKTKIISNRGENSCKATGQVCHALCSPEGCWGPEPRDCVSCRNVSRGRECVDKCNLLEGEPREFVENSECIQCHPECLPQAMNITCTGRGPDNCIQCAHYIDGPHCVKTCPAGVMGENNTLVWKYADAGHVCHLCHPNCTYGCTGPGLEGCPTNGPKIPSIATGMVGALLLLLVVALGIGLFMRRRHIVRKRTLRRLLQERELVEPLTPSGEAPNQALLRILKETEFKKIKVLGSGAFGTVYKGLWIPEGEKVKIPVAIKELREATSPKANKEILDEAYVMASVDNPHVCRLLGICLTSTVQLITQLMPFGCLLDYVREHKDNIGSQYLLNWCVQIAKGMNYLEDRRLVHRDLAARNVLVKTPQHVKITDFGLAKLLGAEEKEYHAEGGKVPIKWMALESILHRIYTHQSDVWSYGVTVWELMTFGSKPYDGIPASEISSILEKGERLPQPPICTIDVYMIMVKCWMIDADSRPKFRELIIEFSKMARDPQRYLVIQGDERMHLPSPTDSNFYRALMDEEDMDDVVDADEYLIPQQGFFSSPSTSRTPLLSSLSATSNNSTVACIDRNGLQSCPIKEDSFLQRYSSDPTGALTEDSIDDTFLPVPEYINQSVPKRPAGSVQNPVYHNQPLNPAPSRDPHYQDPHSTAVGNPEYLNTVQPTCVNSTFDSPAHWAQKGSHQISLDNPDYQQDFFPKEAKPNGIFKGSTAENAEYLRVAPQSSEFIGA
Source text: as §1, §2, §3, §4, §5

[16] = biological target: Abl (Homo sapiens, UniProt P00519); experiment: Z′-LYTE kinase inhibition assay, Abl; type: biochemical; details: for % inhibition: average of 2 runs
Chain of Abl (P00519 whole entry): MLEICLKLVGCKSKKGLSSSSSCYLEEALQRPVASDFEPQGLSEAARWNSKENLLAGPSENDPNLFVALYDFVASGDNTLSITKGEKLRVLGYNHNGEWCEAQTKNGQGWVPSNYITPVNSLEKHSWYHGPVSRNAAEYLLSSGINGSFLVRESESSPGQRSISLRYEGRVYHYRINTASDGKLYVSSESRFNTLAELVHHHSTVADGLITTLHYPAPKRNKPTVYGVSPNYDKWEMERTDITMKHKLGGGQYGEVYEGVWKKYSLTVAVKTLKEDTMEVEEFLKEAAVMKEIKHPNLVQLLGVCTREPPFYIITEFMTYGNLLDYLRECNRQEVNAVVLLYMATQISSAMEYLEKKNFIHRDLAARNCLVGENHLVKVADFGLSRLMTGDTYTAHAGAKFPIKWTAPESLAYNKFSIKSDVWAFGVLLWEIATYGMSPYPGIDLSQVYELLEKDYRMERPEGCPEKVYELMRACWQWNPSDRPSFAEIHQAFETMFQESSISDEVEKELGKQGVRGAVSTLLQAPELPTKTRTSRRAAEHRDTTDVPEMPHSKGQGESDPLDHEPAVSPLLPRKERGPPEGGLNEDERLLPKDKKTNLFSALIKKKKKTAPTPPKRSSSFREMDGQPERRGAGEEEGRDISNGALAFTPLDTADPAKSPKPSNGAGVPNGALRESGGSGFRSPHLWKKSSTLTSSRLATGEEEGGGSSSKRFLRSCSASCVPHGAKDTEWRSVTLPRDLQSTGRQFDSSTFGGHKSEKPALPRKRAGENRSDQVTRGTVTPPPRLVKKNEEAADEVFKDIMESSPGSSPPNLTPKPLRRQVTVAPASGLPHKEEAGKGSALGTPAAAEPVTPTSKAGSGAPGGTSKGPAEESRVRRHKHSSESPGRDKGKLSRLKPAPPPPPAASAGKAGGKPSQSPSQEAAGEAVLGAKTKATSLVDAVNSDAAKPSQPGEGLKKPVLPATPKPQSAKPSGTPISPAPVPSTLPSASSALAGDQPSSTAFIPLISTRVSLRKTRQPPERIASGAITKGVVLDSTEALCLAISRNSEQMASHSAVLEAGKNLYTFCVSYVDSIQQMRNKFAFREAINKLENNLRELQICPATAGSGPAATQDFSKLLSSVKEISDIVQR
Source text: as §1, §2, §3, §4, §5

[17] = biological target: BTK (Homo sapiens, UniProt Q06187); experiment: Z′-LYTE kinase inhibition assay, BTK; type: biochemical; details: average of 2 runs
Source text: as §1, §2, §3, §4, §5

[18] = biological target: CSK (Homo sapiens, UniProt P41240); experiment: Z′-LYTE kinase inhibition assay, CSK; type: biochemical; details: average of 2 runs
Source text: as §1, §2, §3, §4, §5

[19] = biological target: Hck (Homo sapiens, UniProt P08631); experiment: Z′-LYTE kinase inhibition assay, Hck; type: biochemical; details: average of 2 runs
Source text: as §1, §2, §3, §4, §5

[20] = biological target: Lck (Homo sapiens, UniProt P06239); experiment: Z′-LYTE kinase inhibition assay, Lck; type: biochemical; details: average of 2 runs
Source text: as §1, §2, §3, §4, §5

SMILES: COc1ccc(Br)c(-c2c(Cl)n(C3CCCC3)c3ncnc(N)c23)c1 (racemic) [Compound 1f, 5-(2-bromo-5-methoxyphenyl)-6-chloro-7-cyclopentyl-7H-pyrrolo[2,3-d]pyrimidin-4-amine]
Barrier to Rotation [1]: 29.0 kcal/mol
Barrier to Rotation kobs [1]: 1.01E−05

SMILES: COc1ccc(Br)c(-c2c(Cl)n(C3CCCC3)c3ncnc(N)c23)c1 (single isomer, unassigned) [1f-(R), 5-(2-bromo-5-methoxyphenyl)-6-chloro-7-cyclopentyl-7H-pyrrolo[2,3-d]pyrimidin-4-amine]
IC50 [2]: > 10 µM

SMILES: COc1ccc(Br)c(-c2c(Cl)n(C3CCCC3)c3ncnc(N)c23)c1 (single isomer, unassigned) [1f-(S), 5-(2-bromo-5-methoxyphenyl)-6-chloro-7-cyclopentyl-7H-pyrrolo[2,3-d]pyrimidin-4-amine]
IC50 [2]: 1.3 µM

SMILES: COc1ccc(Cl)c(-c2c(Cl)n(C3CCCC3)c3ncnc(N)c23)c1 [Compound 1e, 6-chloro-5-(2-chloro-5-methoxyphenyl)-7-cyclopentyl-7H-pyrrolo[2,3-d]pyrimidin-4-amine]
Barrier to Rotation [1]: 27.2 kcal/mol
Barrier to Rotation kobs [1]: 1.24E−04

Further lines, with some results ahead:

Barrier to Rotation [1]: 28.6 kcal/mol
SMILES: COc1ccc(Cl)c(-c2c(Cl)n(C(C)(C)C)c3ncnc(N)c23)c1 (racemic) [Compound 2e, 7-(tert-butyl)-6-chloro-5-(2-chloro-5-methoxyphenyl)-7H-pyrrolo[2,3d]pyrimidin-4-amine]
Barrier to Rotation kobs [1]: 3.27E−05

Barrier to Rotation [1]: 30.4 kcal/mol
SMILES: COc1ccc(Br)c(-c2c(Cl)n(C(C)(C)C)c3ncnc(N)c23)c1 (racemic) [Compound 2f, 5-(2-bromo-5-methoxyphenyl)-7-(tert-butyl)-6-chloro-7H-pyrrolo[2,3-d]pyrimidin-4-amine]
Barrier to Rotation kobs [1]: 2.68E−05

% inhibition ([3]; 1000 nM, 1 µM): 5%
inhibition at 5 µM ([3]; 5000 nM): 26%
inhibition at 1 µM ([4]; 1000 nM): 6%
% inhibition ([4]; 5000 nM, 5 µM): 18%
IC50 of Kinase/IC50 of Yes ([5]; Yes relative to Yes): 1
inhibition at 1 µM ([5]; Yes, 1000 nM, average of 2 runs): 53%
inhibition at 5 µM ([5]; Yes, 5000 nM, average of 2 runs): 79%
IC50 ([5]; Yes, error is standard deviation): 895 nM
% inhibition ([6]; 1000 nM, 1 µM): −2%
inhibition at 5 µM ([6]; 5000 nM): 0%
IC50 of Kinase/IC50 of Yes ([7]; Ret relative to Yes): 2.07
% inhibition ([7]; Ret, 1000 nM, 1 µM): 35%
% inhibition ([7]; Ret, 5000 nM): 73%
% inhibition ([7]; Ret, 5000 nM, 5 µM): 73%
IC50 ([7]; Ret, error is standard deviation): 1860 nM
IC50 of Kinase/IC50 of Yes ([2]; Src relative to Yes): 6.22
IC50 [2]: 5.57 µM
S(40%) ([8]; 1000 nM): 0.11
S(40%) ([8]; 5000 nM): 0.44
augmentation of 5's inherent selectivity ([8]; Ret over Abl and Src): 4 fold
% inhibition ([9]; 1000 nM, 1 µM): 3%
inhibition at 5 µM ([9]; 5000 nM): 32%
% inhibition ([10]; 1000 nM, 1 µM): 4%
inhibition at 5 µM ([10]; 5000 nM): 13%
inhibition at 1 µM ([11]; 1000 nM): 19%
inhibition at 5 µM ([11]; 5000 nM): 57%
inhibition at 1 µM ([12]; 1000 nM): 3%
inhibition at 5 µM ([12]; 5000 nM): 8%
inhibition at 1 µM ([13]; 1000 nM): 19%
inhibition at 5 µM ([13]; 5000 nM): 44%
inhibition at 1 µM ([14]; 1000 nM): 45%
inhibition at 5 µM ([14]; 5000 nM): 77%
IC50 of Kinase/IC50 of Yes ([15]; EGFR relative to Yes): >10.0
% inhibition ([15]; EGFR, 1000 nM, 1 µM): −4%
% inhibition ([15]; EGFR, 5000 nM, 5 µM): 0%
IC50 ([15]; EGFR, error is standard deviation): > 10 µM
IC50 of Kinase/IC50 of Yes ([16]; Abl relative to Yes): 10.0
% inhibition ([16]; Abl, 1000 nM, 1 µM): 11%
% inhibition ([16]; Abl, 5000 nM): 26%
% inhibition ([16]; Abl, 5000 nM, 5 µM): 26%
IC50 ([16]; Abl, error is standard deviation): > 10 µM
inhibition at 1 µM ([17]; 1000 nM): 10%
% inhibition ([17]; 5000 nM, 5 µM): 29%
inhibition at 1 µM ([18]; 1000 nM): 21%
inhibition at 5 µM ([18]; 5000 nM): 35%
inhibition at 1 µM ([19]; 1000 nM): 24%
inhibition at 5 µM ([19]; 5000 nM): 40%
inhibition at 1 µM ([20]; 1000 nM): 23%
inhibition at 5 µM ([20]; 5000 nM): 51%
SMILES: COc1ccc(Cl)c(-c2c(Cl)n(C(C)(C)C)c3ncnc(N)c23)c1 (single isomer, unassigned) [2e-(R), 7-(tert-butyl)-6-chloro-5-(2-chloro-5-methoxyphenyl)-7H-pyrrolo[2,3d]pyrimidin-4-amine]
